From patent US5698529A, “Chemotherapeutic compositions” (Supratek Pharma, Inc., priority 1996, dated 1997)
In brackets after ≈: the same amount, converted by molar mass. Read-outs that look alike come from different tables or passages of the source.

What was measured:
CRL157 cells = test: Cytotoxicity to CRL157 cells after incubation of preparations in the dark at 37° C.; assay type: cell-based; conditions: Homo sapiens
Method: (§1) B. Human ovarian carcinoma cells (CRL157) are precultured in 1% solution of the same block copolymer but without daunorubicin in RPMI 1640 medium supplemented with 10% calf fetal serum. The preparation of part A is added and the mixture is incubated for 60 minutes at 37° C. and the cells then washed three times with RPMI 1640 and cultured in RPMI 1640 supplemented with 10% calf fetal serum for 3 days {Prep. A}. Cytotoxicity is measured, both for this preparation and a parallel preparation of free daunorubicin {Prep. B}, using the method of Alley et al., Cancer Res., 48, 589-601 (1988). The results are as follows:
Micellar daunorubicin obtained as described in Example 3 {Prep. A} and free daunorubicin {Prep. B} are incubated in the dark at 37° C. and cytotoxicity to CRL157 cells in then determined in the manner discussed in Part B of Example 1.

[1] = test system: human T-lymphoma (Jurkat) cells; test: IC50 at intervals of drug contact, Jurkat cells, Example 5; assay type: cell-based
Method: Measurements are made at the indicated intervals of the drug contact with the cells from 15 minutes to 12 hours.

SKVLB cells = test: Cytotoxic activity of plasma of inoculated mice on SKVLB cells; assay type: cell-based, human
Method: (§2) Anti-neoplastic activity is determined by evaluation of the cytotoxic activity of plasma of mammals inoculated with the test composition (see de Valeriola et el., Cancer Chemother. Pharmacol. 29, 133-140, 1991).
(§3) Groups (6 animals/group) of C57B1/6 7-week-old female mice are inoculated i.v. (via the tail vein) with free or micellar (N=1.3) daunorubicin obtained as described in Example 3 {Prep. B and Prep. A, respectively}. Drug concentrations (MTD) are adjusted so that a maximum volume of 0.1 mL is injected in each mouse. The experiment is repeated twice.
(§4) To obtain plasma samples, blood (10 μl) is collected from the tail artery one hour after drug administration, diluted 1:10 with sterile RPMI 1640 medium, and centrifuged at 400 g for 15 minutes. […] The cells are incubated for two hours at 37° C. and 5% CO2, and then washed three times with RPMI 1640. The pretreated cells are incubated in RPMI 1640 supplemented with 10% fetal calf serum at 37° C. and 5% CO2 for three days, after which cytotoxicity is determined as described in Example 1.
(§5) The procedure of Example 16 is repeated utilizing SKVLB and SRVO3 cells.

leukocytes = test: Leukocyte count (WBS) in mice
Method: Therefore, the leukocyte count during in vivo administration of MTD daunorubicin allows the assessment of the ratio between specific (DNA-intercollation) activity of the drug and non-specific toxicity.
Groups (6 animals/group) of C57B1/6 7-week-old female mice are inoculated i.p. with free of micellar (N=1.3) daunorubicin obtained as described in Example 3 {Prep. B and Prep. A, respectively}. Drug concentrations (MTD) are adjusted so that a maximum volume of 0.5 mL is injected in each mouse. Blood samples are collected and viable leukocytes are counted as described in Michisch et al., Proc. Natl. Acad. Sci. USA 88, 547-551 (1991). The number of WBC after administration of 0.1 mL PBS, 15-16 mln cells/mL, is used as the control. The experiment is repeated twice.
The effects of free and micellar daunorubicin obtained as described in Example 3 {Prep. B and Prep. A, respectively} on leukocyte count are determined three days after administration as described in Example 15.

[2] = test system: human breast cancer (MCF-7); test: Cytotoxicity against daunorubicin-sensitive human breast cancer (MCF-7); assay type: cell-based; conditions: MCF7
Excerpt: (§6) The daunorubicin composition of Example 3 {Prep. […] B}.

MCF-7AU = test: Cytotoxicity against daunorubicin/verapamil-resistant MCF-7AU not expressing P-170; assay type: cell-based, human
Excerpt: as §6

[3] = test system: human T-lymphoma (Jurkat) cells; test: Cytotoxicity to human T-lymphoma (Jurkat) cells, Example 1; assay type: cell-based
Method: A. A block copolymer of poly(oxyethylene)-poly(oxypropylene) in which N=0.25 (Pluronic F-68) is diluted with RPMI 1640 medium to a final concentration of 2.0% at 4° C. The mixture is incubated for 30 minutes at 37° C. and then sterilely filtered through a 0.22 μm filter. An equal volume of a solution of 200 μg daunorubicin in RPMI 1640 medium is added and this mixture is incubated for 30 minutes at 37° C.
as §1
Following the same procedure, cytotoxicity is determined against human T-lymphoma (Jurkat) cells: […]

SKVO3 cells = test: Cytotoxic activity of plasma of inoculated mice on SKVO3 cells; assay type: cell-based, human
Method: as §2, §3, §4, §5

MTD in mice = conditions: mouse, in vivo, ip, C57B1/6 female mice, 14 days
Excerpt: B and Prep. A, respectively}, and are observed for 14 days.
The MTD is defined as a dose which leads to no daunorubicin-deaths (any higher dose leads to the daunorubicin-related death of at least 1 animal per group). The experiment is repeated twice. The results are reproducible with less that 10% variation.

[4] = plasma dilution 1:20, 10 mg/kg daunorubicin
[5] = plasma dilution 1:20, MTD of daunorubicin
[6] = plasma dilution 1:200, 10 mg/kg daunorubicin
[7] = plasma dilution 1:200, MTD of daunorubicin
[8] = plasma dilution 1:2000, 10 mg/kg daunorubicin
[9] = plasma dilution 1:2000, MTD of daunorubicin

Q: Which IC50 (CRL157 cells; 2 h) does the source give for `COc1cccc2c1C(=O)c1c(O)c3c(c(O)c1C2=O)C[C@@](O)(C(C)=O)C[C@@H]3O[C@H]1C[C@H](N)[C@H](O)[C@H](C)O1` [Prep. B, daunorubicin] here?
A: 0.4 µg/mL (≈ 0.758 µM)

Q: And the IC50 (CRL157 cells; 4 h)?
A: 0.475 µg/mL (≈ 0.9 µM)

Q: What about the IC50 (CRL157 cells; 12 h) of the same molecule?
A: 1.12 µg/mL (≈ 2.12 µM)

Q: What about the IC50 (CRL157 cells; 24 h) of the same molecule?
A: 6.3 µg/mL (≈ 11.9 µM)

Q: And the IC50 (CRL157 cells; 48 h)?
A: 10.2 µg/mL (≈ 19.3 µM)

Q: And the IC50 (CRL157 cells; 96 h)?
A: 48.9 µg/mL (≈ 92.7 µM)

Q: And the IC50 ([1]; 0.25 h)?
A: 0.12 µg/mL (≈ 0.227 µM)

Q: And the IC50 ([1]; 0.5 h, drug contact 0.50 hours, read-out: IC50)?
A: 0.068 µg/mL (≈ 0.129 µM)

Q: What about the IC50 ([1]; 0.75 h) of the same molecule?
A: 0.035 µg/mL (≈ 0.0663 µM)

Q: And the IC50 ([1]; 1 h)?
A: 0.025 µg/mL (≈ 0.0474 µM)

Q: What about the IC50 ([1]; 2 h) of the same molecule?
A: 0.019 µg/mL (≈ 0.036 µM)

Q: What about the IC50 ([1]; 4 h) of the same molecule?
A: 0.016 µg/mL (≈ 0.0303 µM)

Q: What about the IC50 ([1]; 8 h) of the same molecule?
A: 0.003 µg/mL (≈ 0.00569 µM)

Q: What about the IC50 ([1]; 12 h) of the same molecule?
A: 0.0052 µg/mL (≈ 0.00986 µM)

Q: What about the “Inhibition, %” value (SKVLB cells; [4]) of the same molecule?
A: 8%

Q: And the “Inhibition, %” value (SKVLB cells; [5])?
A: 0%

Q: And the “Inhibition, %” value (SKVLB cells; [6])?
A: 0%

Q: What about the “Inhibition, %” value (SKVLB cells; [7]) of the same molecule?
A: 0%

Q: And the “Inhibition, %” value (SKVLB cells; [8])?
A: 0%

Q: What about the “Inhibition, %” value (SKVLB cells; [9]) of the same molecule?
A: 0%

Q: And the “WBS, % of control” value (leukocytes; day 0, MTD i.p.)?
A: 100 % of control

Q: What about the “WBS, % of control” value (leukocytes; day 3, MTD i.p.) of the same molecule?
A: 40 % of control

Q: And the “WBS, % of control” value (leukocytes; day 7, MTD i.p.)?
A: 60 % of control

Q: And the “WBS, % of control” value (leukocytes; day 10, MTD i.p.)?
A: 93.8 % of control

Q: And the “WBS, % of control” value (leukocytes; day 14, MTD i.p.)?
A: 100 % of control

Q: What about the “WBS, % of control” value (leukocytes; dose 25% of MTD, three days after administration) of the same molecule?
A: 78 % of control

Q: What about the “WBS, % of control” value (leukocytes; dose 50% of MTD, three days after administration) of the same molecule?
A: 61 % of control

Q: What about the “WBS, % of control” value (leukocytes; dose 75% of MTD, three days after administration) of the same molecule?
A: 36 % of control

Q: What about the “WBS, % of control” value (leukocytes; dose 100% of MTD, three days after administration) of the same molecule?
A: 39 % of control

Q: And the inhibition at 0.016 µg/mL [2]?
A: 15%

Q: What about the inhibition at 0.08 µg/mL [2] of the same molecule?
A: 43%

Q: And the inhibition at 0.4 µg/mL [2]?
A: 69%

Q: And the inhibition at 2 µg/mL [2]?
A: 91%

Q: And the inhibition at 10 µg/mL [2]?
A: 100%

Q: And the inhibition at 50 µg/mL [2]?
A: 100%

Q: What about the inhibition at 0.016 µg/mL (MCF-7AU; Homo sapiens) of the same molecule?
A: 3%

Q: And the inhibition at 0.08 µg/mL (MCF-7AU; Homo sapiens)?
A: 9%

Q: And the inhibition at 0.4 µg/mL (MCF-7AU; Homo sapiens)?
A: 37%

Q: And the inhibition at 2 µg/mL (MCF-7AU; Homo sapiens)?
A: 65%

Q: What about the inhibition at 10 µg/mL (MCF-7AU; Homo sapiens) of the same molecule?
A: 89%

Q: What about the inhibition at 50 µg/mL (MCF-7AU; Homo sapiens) of the same molecule?
A: 100%

Q: What about the “IC50 (in words)” value (MCF-7AU; resistant line MCF-7AU, statement for both resistant lines) of the same molecule?
A: higher IC50 's (is less toxic)

Q: What about the inhibition at 0.0032 µg/mL [3] of the same molecule?
A: 22%

Q: And the inhibition at 0.016 µg/mL [3]?
A: 44%

Q: And the inhibition at 0.08 µg/mL [3]?
A: 51%

Q: And the inhibition at 0.4 µg/mL [3]?
A: 84%

Q: And the inhibition at 2 µg/mL [3]?
A: 100%

Q: And the inhibition at 10 µg/mL [3]?
A: 100%

Q: And the inhibition at 50 µg/mL [3]?
A: 100%

Q: And the “Inhibition, %” value (SKVO3 cells; [4])?
A: 22%

Q: What about the “Inhibition, %” value (SKVO3 cells; [5]) of the same molecule?
A: 9%

Q: And the “Inhibition, %” value (SKVO3 cells; [6])?
A: 6%

Q: And the “Inhibition, %” value (SKVO3 cells; [7])?
A: 0%

Q: What about the “Inhibition, %” value (SKVO3 cells; [8]) of the same molecule?
A: 0%

Q: And the “Inhibition, %” value (SKVO3 cells; [9])?
A: 0%

Q: And the MTD at 336 h (MTD in mice)?
A: 2 mg/kg
